Experimental data: ChEMBL document CHEMBL1201862, “PubChem BioAssay data set” (2004)
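Tested at 5 concentrations; 48 h exposure; 96-well plates; endpoints linearly interpolated, else capped at highest concentration. Abbreviation: GI50, concentration required for 50% inhibition of growth.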 Calls of active or inactive are those of the source. No stated cut-off is given here; in the data, active = GI50 up to about 1.1 µM and inactive = higher.

Experiments:
Test in all cases: NCI tumour cell line growth inhibition, 48 h
[1] = test system: 786-0
[2] = test system: NCI-H226
[3] = test system: U-251
[4] = test system: RXF 631
[5] = test system: ACHN
[6] = test system: DLD-1
[7] = test system: UO-31
[8] = test system: EKVX
[9] = test system: M19-MEL
[10] = test system: LXFL 529
[11] = test system: SW-620
[12] = test system: MOLT-4
[13] = test system: DMS-114
[14] = test system: SNB-75
[15] = test system: HL-60
[16] = test system: OVCAR-5
[17] = test system: SN12C
[18] = test system: IGROV-1
[19] = test system: OVCAR-3
[20] = test system: NCI-H460
[21] = test system: M14
[22] = test system: CCRF-CEM
[23] = test system: UACC-62
[24] = test system: DMS-273
[25] = test system: Malme-3M
[26] = test system: SF-268
[27] = test system: SNB-19
[28] = test system: UACC-257
[29] = test system: HCT-15
[30] = test system: HCT-116
[31] = test system: SK-OV-3
[32] = test system: LOX IMVI
[33] = test system: SK-MEL-28
[34] = test system: RXF 393
[35] = test system: NCI-H522
[36] = test system: A549
[37] = test system: SF-295
[38] = test system: HOP-62
[39] = test system: KM-20L2
[40] = test system: OVCAR-8
[41] = test system: SK-MEL-5
[42] = test system: TK-10
[43] = test system: COLO 205
[44] = test system: HT-29
[45] = test system: SR
[46] = test system: HOP-18
[47] = test system: SK-MEL-2
[48] = test system: HCC 2998
[49] = test system: OVCAR-4
[50] = test system: NCI-H23
[51] = test system: K562
[52] = test system: KM12
[53] = test system: CAKI-1
[54] = test system: SNB-78
[55] = test system: HOP-92
[56] = test system: A498
[57] = test system: SF-539
[58] = test system: XF498

Measured: GI50

COc1ccc(C(=O)O)c(Cc2cccc3ccccc23)c1
> 100 µM: [29]
inactive: [1] > 100 µM | [2] > 100 µM | [3] > 100 µM | [4] > 100 µM | [5] > 100 µM | [6] > 100 µM | [7] > 100 µM | [8] > 100 µM | [9] > 100 µM | [10] > 100 µM | [11] > 100 µM | [12] > 100 µM | [13] > 100 µM | [14] > 100 µM | [15] > 100 µM | [16] > 100 µM | [17] > 100 µM | [18] > 100 µM | [19] 64.3 µM | [20] > 100 µM | [21] > 100 µM | [22] > 100 µM | [23] 85.9 µM | [24] > 100 µM | [25] > 100 µM | [26] > 100 µM | [27] > 100 µM | [28] > 100 µM | [30] > 100 µM | [31] > 100 µM | [32] > 100 µM | [33] > 100 µM | [34] > 100 µM | [35] > 100 µM | [36] > 100 µM | [37] > 100 µM | [38] > 100 µM | [39] > 100 µM | [40] > 100 µM | [41] > 100 µM | [42] > 100 µM | [43] > 100 µM | [44] > 100 µM | [45] > 100 µM | [46] > 100 µM | [47] > 100 µM | [48] > 100 µM | [49] > 100 µM | [50] > 100 µM | [51] 81.8 µM | [52] > 100 µM | [53] 73.5 µM

CC1/C(=N\O)CC(c2ccccc2)N(C)C1c1ccccc1 (stereo not given)
inactive: [1] > 100 µM | [2] > 100 µM | [3] > 100 µM | [4] > 100 µM | [5] > 100 µM | [6] > 100 µM | [7] > 100 µM | [8] > 100 µM | [54] > 100 µM | [55] > 100 µM | [9] > 100 µM | [10] > 100 µM | [11] > 100 µM | [12] > 100 µM | [13] > 100 µM | [14] > 100 µM | [15] > 100 µM | [16] > 100 µM | [17] > 100 µM | [18] > 100 µM | [19] > 100 µM | [20] > 100 µM | [21] > 100 µM | [22] > 100 µM | [23] > 100 µM | [24] > 100 µM | [25] 80.9 µM | [26] > 100 µM | [27] > 100 µM | [28] > 100 µM | [30] > 100 µM | [31] > 100 µM | [32] > 100 µM | [33] > 100 µM | [34] > 100 µM | [35] > 100 µM | [36] > 100 µM | [37] > 100 µM | [38] > 100 µM | [39] > 100 µM | [40] > 100 µM | [41] > 100 µM | [42] > 100 µM | [43] > 100 µM | [44] > 100 µM | [56] > 100 µM | [57] > 100 µM | [47] > 100 µM | [48] > 100 µM | [49] > 100 µM | [50] > 100 µM | [51] > 100 µM | [52] > 100 µM | [53] > 100 µM
> 100 µM: [29]

CC1=CC(=O)NCCN1C
> 100 µM: [29]
inactive: [1] > 100 µM | [2] > 100 µM | [3] > 100 µM | [5] > 100 µM | [6] > 100 µM | [7] > 100 µM | [8] > 100 µM | [54] > 100 µM | [55] > 100 µM | [9] > 100 µM | [10] > 100 µM | [11] 24.2 µM | [12] > 100 µM | [13] > 100 µM | [14] > 100 µM | [15] 45.9 µM | [16] > 100 µM | [17] > 100 µM | [18] > 100 µM | [19] > 100 µM | [20] > 100 µM | [21] > 100 µM | [22] 75.2 µM | [23] > 100 µM | [24] > 100 µM | [25] > 100 µM | [26] > 100 µM | [27] > 100 µM | [28] > 100 µM | [30] > 100 µM | [31] > 100 µM | [32] 62.7 µM | [33] > 100 µM | [34] > 100 µM | [35] > 100 µM | [36] > 100 µM | [37] > 100 µM | [38] > 100 µM | [58] > 100 µM | [39] > 100 µM | [40] > 100 µM | [41] > 100 µM | [42] > 100 µM | [43] > 100 µM | [44] > 100 µM | [56] > 100 µM | [45] > 100 µM | [57] > 100 µM | [46] > 100 µM | [47] > 100 µM | [48] > 100 µM | [49] > 100 µM | [50] > 100 µM | [51] 73.5 µM | [52] > 100 µM | [53] > 100 µM
